Laboratory results as given in patent US8309534B2, “Compositions comprising a GPR109 ligand for treating disorders of the digestive tract and/or cancer” (Medical College of Georgia Research Institute, Inc., priority 2007, dated 2012).
“Also recorded” adds a separate entry of the source.

Tests used:
[1] = test system: GPR109A expression in human colon cancer cell lines; test: GPR109A mRNA expression in colon cancer cell lines by semi-quantitative RT-PCR; format: cell-based; details: 2 μg/ml, 72 h
Description: HPRT1 mRNA was used as an internal control. […] Steady-state levels of mRNAs for DNMT1, DNMT3a, DNMT3b, and HPRT1 were monitored in normal human colon tissues and in human colon cancer tissues by semi-quantitative RT-PCR. […] Three different colon cancer cell lines were treated with procainamide, a specific inhibitor of DNMT1, and the expression of GPR109A was monitored in cells treated with or without the inhibitor.

[2] = test system: LPS-induced NF-κB promoter activity in KM12L4 cells with ectopic expression of GPR109A; test: LPS-induced NF-κB promoter reporter in KM12L4 cells transfected with human GPR109A cDNA; format: cell-based; details: ligand 1 mM 8 h, LPS 100 ng/ml 4 h
Source text: (§1) The anti-inflammatory effect of butyrate was monitored in colonic cells by its ability to suppress LPS-induced activation of NF-κB promoter with luciferase as the reporter. The participation of SLC5A8 and GPR109A in mediating the effects of extracellular butyrate was differentiated first by using specific ligands. If SLC5A8 is involved in the process, the transporter-facilitated entry of butyrate followed by inhibition of histone deacetylases (HDACs) inside the cells would be responsible for the effects. If GPR109A is involved in the process, the activation of the receptor by extracellular butyrate would be responsible for the effects. […] In these experiments, cells were first transfected with the construct carrying the NF-κB-luciferase, pretreated with GPR109A ligands (1 mM) for 8 h and then exposed to LPS (100 ng/ml) for 4 h. Following the treatment, cell lysates were used to measure luciferase activity as a read-out for activation of NF-κB.
(§2) The cells were transfected with either empty vector or human GPR109A cDNA. […] We cloned the human GPR109A cDNA by RT-PCR using mRNA prepared from human colon, and subcloned the RT-PCR product into pcDNA vector under the control of the cytomegalovirus promoter. The insert was sequenced to confirm its molecular identity. […] The activation of the receptor was monitored by measuring the activity of a K^+-channel.

[3] = test system: LPS-induced activation of NF-κB promoter in vector-transfected KM12L4 cells; test: LPS-induced NF-κB promoter reporter in vector-transfected KM12L4 cells (no GPR109A); format: cell-based, human; details: ligand 1 mM 8 h, LPS 100 ng/ml 4 h
Source text: as §1, §2

[4] = test system: bone marrow-derived dendritic cells; test: Development of bone marrow-derived dendritic cells (FACS); format: cell-based; details: mouse bone marrow cells, ligand 1 mM, 4 days
Description: In these experiments, mouse bone marrow cells were collected and cultured in the presence of various ligands (1 mM) for 4 days. Following this, FACS (fluorescence activated cell sorting) was used to identify the fraction of various immune cell types in the sample.

[5] = test system: LPS-induced NF-κB promoter activity in HCT116 cells; details: HCT116, no expression of GPR109A
Source text: as §1
(§3) Additionally, two different isogenic cell lines of the human colon cancer cell line HCT116, one with normal expression of the DNA methyltransferase I(DNMT1) and the other with deletion of the gene coding for the enzyme (HCT116-DNMT1^−/−) were used.

[6] = test system: LPS-induced NF-κB promoter activity in HCT116-DNMT1−/− cells; details: GPR109A expressed
Source text: as §1, §3

[7] = test system: LPS-induced activation of NF-κB promoter in CCD841 cells; details: ligand 1 mM 8 h, then LPS 100 ng/ml 4 h, luciferase
Source text: as §1

[8] = test system: vector-transfected KM12L4 cells; details: 0.5 mM, 24 h
[9] = test system: Colon cancer cell line SW480; test: Apoptosis of colon cancer cells with octanoate (propidium iodide FACS); format: cell-based; details: human colon cancer cell line (SW480); varying concentrations, 24 or 48 h
Description: Colon cancer cell line SW480 was cultured in the presence of varying concentrations of octanoate for 24 or 48 h, and then cells were fixed in ethanol, stained with propidium iodide, and subjected to FACS analysis to determine the percent of cells undergoing apoptosis. Sub G0/1 cells were quantitated using Cell Quest program and values are expressed as mean+SEM.

[10] = test system: human breast cancer cell line; test: Apoptosis of human breast cancer cell line with octanoate; format: cell-based; details: human breast cancer cell line expressing GPR109B
Source text: The GPR109B receptor isoform is unique to humans. Its expression is not reduced in cancer. Its ligand specificity is different from that of GPR109A. One of the ligands which has relatively high affinity for GPR109B is the medium-chain fatty acid octanoate. This ligand was used to see if this receptor isoform can be used to kill tumor cells. […] Two cancer cell lines, a human colon cancer cell line and a human breast cancer cell line were studied. Both these cell lines express GPR109B because the expression of this receptor isoform is not affected in cancer. […] Thus, another embodiment provides a method for treating cancer by administering to a subject an effective amount of a ligand for GPR109B to promote apoptosis in tumor cells optionally in combination with a second therapeutic agent. A preferred ligand is octanoate or a derivative thereof.

Nc1ncn([C@@H]2O[C@H](CO)[C@@H](O)[C@H]2O)c(=O)n1 [5-azacytidine]
effect on GPR109A expression [1]: the expression of the gene is induced | effect on GPR109A expression ([1]; listed as 5′-azacytidine): re-activates the expression of the receptor

CC(C)n1nnc2cc(C(=O)O)ccc21 [IPBT, 1-isopropyl-benzotriazole-5-carboxylic acid]
effect on LPS-induced NF-κB promoter activity [2]: did not have any effect | effect on LPS-induced activation of NF-κB promoter [3]: did not have any effect

CC(=O)O [acetate]
effect on development of dendritic cells [4]: had no effect

CC1(c2ccccc2)OC(C(=O)O)=CC1=O (stereo not drawn) [acifran]
effect on LPS-induced NF-κB promoter activity [2]: marked suppression | effect on LPS-induced NF-κB promoter activity [5]: none of these compounds had any significant effect | effect on LPS-induced NF-κB promoter activity [6]: suppressed LPS-induced promoter activity | effect on LPS-induced activation of NF-κB promoter [3]: did not have any effect

O=C(O)c1cccnc1 [nicotinate, nicotinic acid]
effect on LPS-induced activation of NF-κB promoter [7]: able to block LPS-induced activation of NF-κB promoter | change in expression of genes involved in apoptosis and cell cycle [8]: do not exhibit any change in the expression of various genes | effect on development of dendritic cells [4]: had no effect

CCCCCCCC(=O)O [octanoate]
apoptosis [9]: induced apoptosis; also recorded: leads to apoptosis in a dose-dependent manner | apoptosis [10]: leads to apoptosis in a dose-dependent manner

CCC(=O)O [propionate]
effect on development of dendritic cells [4]: able to block the development
